Where two headings read alike, the source gives them in different places.
Assays:
Experiment in all cases: selectivity profiling in a panel of 340 wild-type kinases (Reaction Biology Europe)
Assay type in all cases: binding
340 wild-type kinases [1] = target: T1, 340 wild-type kinases (Homo sapiens, UniProt Q13976)
T1 construct: purchased Reaction Biology Europe
T1 sequence (Q13976 1-671): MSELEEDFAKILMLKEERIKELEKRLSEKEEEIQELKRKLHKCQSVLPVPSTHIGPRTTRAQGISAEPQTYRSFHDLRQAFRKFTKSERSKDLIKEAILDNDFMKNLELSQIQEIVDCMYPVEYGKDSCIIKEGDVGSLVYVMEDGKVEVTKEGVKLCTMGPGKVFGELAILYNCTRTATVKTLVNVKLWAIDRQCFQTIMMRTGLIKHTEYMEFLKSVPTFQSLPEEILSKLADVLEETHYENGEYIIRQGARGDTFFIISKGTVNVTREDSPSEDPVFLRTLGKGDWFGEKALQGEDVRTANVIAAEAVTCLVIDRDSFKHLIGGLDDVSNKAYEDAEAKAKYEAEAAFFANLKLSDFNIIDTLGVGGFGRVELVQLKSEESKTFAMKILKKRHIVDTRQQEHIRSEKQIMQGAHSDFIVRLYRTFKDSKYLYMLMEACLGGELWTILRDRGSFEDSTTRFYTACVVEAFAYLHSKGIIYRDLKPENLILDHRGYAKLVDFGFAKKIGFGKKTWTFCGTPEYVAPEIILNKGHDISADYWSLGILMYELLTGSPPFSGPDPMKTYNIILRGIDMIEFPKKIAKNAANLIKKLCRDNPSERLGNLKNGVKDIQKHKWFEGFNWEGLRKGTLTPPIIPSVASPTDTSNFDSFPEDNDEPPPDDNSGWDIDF

340 wild-type kinases [2] = target: T2, 340 wild-type kinases (Homo sapiens, UniProt Q16513)
T2 construct: purchased Reaction Biology Europe

340 wild-type kinases [3] = target: T3, 340 wild-type kinases (Homo sapiens, UniProt Q8TDX7)
T3 construct: purchased Reaction Biology Europe

340 wild-type kinases [4] = target: T4, 340 wild-type kinases (Homo sapiens, UniProt P21802)
T4 construct: purchased Reaction Biology Europe

340 wild-type kinases [5] = target: T5, 340 wild-type kinases (Homo sapiens, UniProt Q8TD19)
T5 construct: purchased Reaction Biology Europe
T5 sequence (Q8TD19 1-979): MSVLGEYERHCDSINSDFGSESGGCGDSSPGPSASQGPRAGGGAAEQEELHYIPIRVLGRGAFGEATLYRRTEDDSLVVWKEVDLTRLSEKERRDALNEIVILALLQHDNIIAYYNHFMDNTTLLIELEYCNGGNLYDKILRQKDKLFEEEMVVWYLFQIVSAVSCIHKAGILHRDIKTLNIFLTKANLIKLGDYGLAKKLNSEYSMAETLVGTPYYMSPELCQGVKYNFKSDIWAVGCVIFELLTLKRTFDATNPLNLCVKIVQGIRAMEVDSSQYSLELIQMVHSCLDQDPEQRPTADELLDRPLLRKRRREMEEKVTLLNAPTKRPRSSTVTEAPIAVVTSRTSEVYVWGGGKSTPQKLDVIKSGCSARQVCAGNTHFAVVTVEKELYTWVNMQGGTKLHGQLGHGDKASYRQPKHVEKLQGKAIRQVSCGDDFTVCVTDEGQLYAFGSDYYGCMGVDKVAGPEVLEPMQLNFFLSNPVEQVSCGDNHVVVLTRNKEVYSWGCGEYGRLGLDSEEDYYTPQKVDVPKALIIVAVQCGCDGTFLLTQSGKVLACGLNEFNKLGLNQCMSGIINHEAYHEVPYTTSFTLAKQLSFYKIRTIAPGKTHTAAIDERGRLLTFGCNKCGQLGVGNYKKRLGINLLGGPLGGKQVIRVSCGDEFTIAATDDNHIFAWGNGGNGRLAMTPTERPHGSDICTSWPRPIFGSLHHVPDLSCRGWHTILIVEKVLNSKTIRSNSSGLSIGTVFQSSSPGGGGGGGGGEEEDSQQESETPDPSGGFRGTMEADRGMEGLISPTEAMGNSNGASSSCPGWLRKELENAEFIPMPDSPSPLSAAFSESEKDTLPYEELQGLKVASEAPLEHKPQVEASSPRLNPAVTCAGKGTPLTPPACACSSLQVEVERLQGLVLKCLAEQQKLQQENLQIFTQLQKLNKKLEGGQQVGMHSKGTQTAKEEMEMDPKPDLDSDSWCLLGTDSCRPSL

340 wild-type kinases [6] = target: T6, 340 wild-type kinases (Homo sapiens, UniProt Q05513)
T6 construct: purchased Reaction Biology Europe
T6 sequence (Q05513 1-592): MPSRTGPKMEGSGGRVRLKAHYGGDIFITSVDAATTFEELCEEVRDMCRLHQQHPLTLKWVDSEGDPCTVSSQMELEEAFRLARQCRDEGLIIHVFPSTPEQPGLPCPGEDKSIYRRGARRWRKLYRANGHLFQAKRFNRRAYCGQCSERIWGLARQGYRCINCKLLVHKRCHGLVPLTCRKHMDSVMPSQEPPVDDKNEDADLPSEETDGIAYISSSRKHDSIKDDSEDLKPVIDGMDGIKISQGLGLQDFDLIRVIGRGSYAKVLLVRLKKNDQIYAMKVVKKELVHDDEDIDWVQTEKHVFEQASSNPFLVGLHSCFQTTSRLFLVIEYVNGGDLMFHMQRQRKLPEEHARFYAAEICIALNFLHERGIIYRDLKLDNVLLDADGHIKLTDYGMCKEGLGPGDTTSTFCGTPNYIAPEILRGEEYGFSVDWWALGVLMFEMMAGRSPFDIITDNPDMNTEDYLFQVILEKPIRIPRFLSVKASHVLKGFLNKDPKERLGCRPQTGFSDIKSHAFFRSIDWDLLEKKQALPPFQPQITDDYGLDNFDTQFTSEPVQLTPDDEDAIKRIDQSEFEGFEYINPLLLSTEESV

340 wild-type kinases [7] = target: T7, 340 wild-type kinases (Homo sapiens, UniProt P42685)
T7 construct: purchased Reaction Biology Europe
T7 sequence (P42685 whole entry): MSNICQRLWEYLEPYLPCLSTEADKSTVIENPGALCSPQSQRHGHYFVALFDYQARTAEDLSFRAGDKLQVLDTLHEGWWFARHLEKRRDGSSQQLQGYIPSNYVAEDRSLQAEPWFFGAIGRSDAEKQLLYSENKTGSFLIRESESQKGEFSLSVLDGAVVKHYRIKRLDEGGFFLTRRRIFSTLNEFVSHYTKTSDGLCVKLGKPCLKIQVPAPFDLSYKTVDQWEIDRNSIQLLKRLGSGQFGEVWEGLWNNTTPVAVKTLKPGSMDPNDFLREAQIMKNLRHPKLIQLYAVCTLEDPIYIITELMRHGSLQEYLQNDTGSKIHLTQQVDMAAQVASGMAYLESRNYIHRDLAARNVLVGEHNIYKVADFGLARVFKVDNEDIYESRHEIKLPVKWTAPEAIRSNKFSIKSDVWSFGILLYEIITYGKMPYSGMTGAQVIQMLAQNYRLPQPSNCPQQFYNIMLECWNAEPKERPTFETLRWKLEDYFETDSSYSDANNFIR

T2 sequence (Q16513 whole entry): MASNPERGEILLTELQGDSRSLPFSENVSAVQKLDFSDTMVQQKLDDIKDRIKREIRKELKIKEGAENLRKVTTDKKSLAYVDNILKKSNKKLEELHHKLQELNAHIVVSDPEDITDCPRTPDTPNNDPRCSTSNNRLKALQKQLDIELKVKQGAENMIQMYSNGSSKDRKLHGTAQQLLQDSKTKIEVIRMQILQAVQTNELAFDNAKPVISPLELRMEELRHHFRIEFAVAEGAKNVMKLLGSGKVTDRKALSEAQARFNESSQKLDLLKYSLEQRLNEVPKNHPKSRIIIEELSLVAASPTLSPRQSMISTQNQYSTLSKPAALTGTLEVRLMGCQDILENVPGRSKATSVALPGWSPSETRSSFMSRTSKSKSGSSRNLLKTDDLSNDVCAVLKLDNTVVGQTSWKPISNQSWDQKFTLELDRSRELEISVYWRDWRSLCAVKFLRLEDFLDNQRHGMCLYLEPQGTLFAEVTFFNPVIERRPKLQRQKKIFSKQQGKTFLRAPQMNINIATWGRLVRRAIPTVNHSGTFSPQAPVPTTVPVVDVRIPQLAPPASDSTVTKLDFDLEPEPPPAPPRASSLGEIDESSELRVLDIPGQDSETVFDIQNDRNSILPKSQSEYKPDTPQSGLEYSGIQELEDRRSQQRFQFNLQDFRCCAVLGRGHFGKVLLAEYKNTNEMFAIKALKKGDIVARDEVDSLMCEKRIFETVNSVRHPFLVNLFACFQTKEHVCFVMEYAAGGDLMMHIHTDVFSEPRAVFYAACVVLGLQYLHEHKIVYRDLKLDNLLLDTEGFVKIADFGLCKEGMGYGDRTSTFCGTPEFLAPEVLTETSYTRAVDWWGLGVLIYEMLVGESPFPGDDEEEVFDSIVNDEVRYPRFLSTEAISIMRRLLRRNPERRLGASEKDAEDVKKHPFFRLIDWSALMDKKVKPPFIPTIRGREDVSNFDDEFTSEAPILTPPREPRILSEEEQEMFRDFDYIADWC
T3 sequence (Q8TDX7 whole entry): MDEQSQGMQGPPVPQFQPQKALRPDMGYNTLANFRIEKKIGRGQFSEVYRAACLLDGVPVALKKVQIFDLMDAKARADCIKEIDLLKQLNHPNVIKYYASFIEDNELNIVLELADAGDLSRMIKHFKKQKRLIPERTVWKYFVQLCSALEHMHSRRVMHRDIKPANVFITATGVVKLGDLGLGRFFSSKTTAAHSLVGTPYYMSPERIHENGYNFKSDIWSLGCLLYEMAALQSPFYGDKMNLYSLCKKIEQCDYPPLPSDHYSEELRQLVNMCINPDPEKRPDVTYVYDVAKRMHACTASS
T4 sequence (P21802 22-821): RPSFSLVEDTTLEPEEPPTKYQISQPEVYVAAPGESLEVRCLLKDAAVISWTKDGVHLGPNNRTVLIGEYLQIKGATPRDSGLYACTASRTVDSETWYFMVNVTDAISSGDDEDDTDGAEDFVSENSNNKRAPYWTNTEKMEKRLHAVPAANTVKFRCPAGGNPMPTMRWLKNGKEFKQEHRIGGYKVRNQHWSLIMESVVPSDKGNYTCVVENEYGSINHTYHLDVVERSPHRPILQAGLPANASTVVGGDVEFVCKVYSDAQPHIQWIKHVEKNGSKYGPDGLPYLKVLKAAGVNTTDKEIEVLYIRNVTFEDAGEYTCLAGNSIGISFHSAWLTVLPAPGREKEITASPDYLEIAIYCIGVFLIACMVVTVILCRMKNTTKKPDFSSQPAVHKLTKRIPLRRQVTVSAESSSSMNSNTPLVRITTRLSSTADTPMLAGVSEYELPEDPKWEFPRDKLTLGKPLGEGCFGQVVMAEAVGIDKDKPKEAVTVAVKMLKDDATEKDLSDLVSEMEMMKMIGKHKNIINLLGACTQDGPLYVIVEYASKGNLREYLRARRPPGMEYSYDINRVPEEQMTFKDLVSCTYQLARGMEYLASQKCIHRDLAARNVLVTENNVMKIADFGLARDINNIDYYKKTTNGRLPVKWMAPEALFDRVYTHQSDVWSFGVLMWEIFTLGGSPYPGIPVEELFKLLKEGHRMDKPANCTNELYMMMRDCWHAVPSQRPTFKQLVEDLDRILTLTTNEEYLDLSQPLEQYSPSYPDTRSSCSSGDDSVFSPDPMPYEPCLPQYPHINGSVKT

CNC(=O)c1ccc2c(c1)C(=O)c1ccc(Nc3ccc(F)c(NC(=O)C4CC4)c3)cc1CC2 [Compound 2015]
remaining activity at 0.2 µM (340 wild-type kinases [1]; 0.2 µM 2015, read-out: PRKG1 residual activity): 106%
remaining activity at 1 µM (340 wild-type kinases [1]; 1 µM 2015, read-out: PRKG1 residual activity): 104%
remaining activity at 0.2 µM (340 wild-type kinases [1]; PRKG1, 0.2 µM, read-out: residual activity): 106%
remaining activity at 1 µM (340 wild-type kinases [1]; PRKG1, 1 µM, read-out: residual activity): 104%
remaining activity at 0.2 µM (340 wild-type kinases [2]; 0.2 µM 2015, read-out: PRK2 residual activity): 89.2%
remaining activity at 1 µM (340 wild-type kinases [2]; 1 µM 2015, read-out: PRK2 residual activity): 91.1%
remaining activity at 0.2 µM (340 wild-type kinases [2]; PRK2, 0.2 µM, read-out: residual activity): 89.2%
remaining activity at 1 µM (340 wild-type kinases [2]; PRK2, 1 µM, read-out: residual activity): 91.1%
remaining activity at 0.2 µM (340 wild-type kinases [3]; 0.2 µM 2015, read-out: NEK7 residual activity): 119%
remaining activity at 1 µM (340 wild-type kinases [3]; 1 µM 2015, read-out: NEK7 residual activity): 110%
remaining activity at 0.2 µM (340 wild-type kinases [3]; NEK7, 0.2 µM, read-out: residual activity): 119%
remaining activity at 0.2 µM (340 wild-type kinases [4]; 0.2 µM 2015, read-out: FGFR2 residual activity): 94.1%
remaining activity at 1 µM (340 wild-type kinases [4]; 1 µM 2015, read-out: FGFR2 residual activity): 96%
remaining activity at 0.2 µM (340 wild-type kinases [4]; FGFR2, 0.2 µM, read-out: residual activity): 94.1%
remaining activity at 1 µM (340 wild-type kinases [4]; FGFR2, 1 µM, read-out: residual activity): 96%
remaining activity at 0.2 µM (340 wild-type kinases [5]; 0.2 µM 2015, read-out: NEK9 residual activity): 96.5%
remaining activity at 1 µM (340 wild-type kinases [5]; 1 µM 2015, read-out: NEK9 residual activity): 93%
remaining activity at 0.2 µM (340 wild-type kinases [5]; NEK9, 0.2 µM, read-out: residual activity): 96.5%
remaining activity at 1 µM (340 wild-type kinases [5]; NEK9, 1 µM, read-out: residual activity): 93%
remaining activity at 0.2 µM (340 wild-type kinases [6]; 0.2 µM 2015, read-out: PKCzeta residual activity): 126%
remaining activity at 0.2 µM (340 wild-type kinases [6]; 0.2 µM 2015, read-out: PKMzeta residual activity): 106%
remaining activity at 1 µM (340 wild-type kinases [6]; 1 µM 2015, read-out: PKCzeta residual activity): 111%
remaining activity at 1 µM (340 wild-type kinases [6]; 1 µM 2015, read-out: PKMzeta residual activity): 102%
remaining activity at 0.2 µM (340 wild-type kinases [6]; PKCzeta, 0.2 µM, read-out: residual activity): 126%
remaining activity at 1 µM (340 wild-type kinases [6]; PKCzeta, 1 µM, read-out: residual activity): 111%
remaining activity at 0.2 µM (340 wild-type kinases [7]; 0.2 µM 2015, read-out: FRK residual activity): 126%
remaining activity at 1 µM (340 wild-type kinases [7]; 1 µM 2015, read-out: FRK residual activity): 110%
remaining activity at 0.2 µM (340 wild-type kinases [7]; FRK, 0.2 µM, read-out: residual activity): 126%
remaining activity at 1 µM (340 wild-type kinases [7]; FRK, 1 µM, read-out: residual activity): 110%

Reference: PMC11864979, “First-in-class ultralong-target-residence-time p38α inhibitors as a mitosis-targeted therapy for colorectal cancer” (Nature Cancer, 2025)
